≈ marks a conversion by molar mass, not a printed value. Calls of active or inactive are those of the source. The rule behind the calls is not given here.
Assays:
Mycobacterium avium [1] = assay: Antimycobacterial activity against Mycobacterium avium CNCTC My 152/73 assessed as growth inhibition after 14 days by microdilution method; format: functional; details: CNCTC My 152/73, 336 h
Mycobacterium kansasii = assay: Antimycobacterial activity against Mycobacterium kansasii CNCTC My 235/80 assessed as growth inhibition after 14 days by microdilution method; format: functional; details: CNCTC My 235/80, 336 h
[2] = tested on: Mycobacterium tuberculosis; assay: Antimycobacterial activity against Mycobacterium tuberculosis H37Rv assessed as growth inhibition after 14 days by microdilution method; format: functional; details: 336 h
Mycobacterium avium [3] = assay: Antimycobacterial activity against Mycobacterium avium CNCTC My 80/72 assessed as growth inhibition after 14 days by microdilution method; format: functional; details: CNCTC My 80/72, 336 h
[4] = tested on: Staphylococcus epidermidis; assay: Antibacterial activity against Staphylococcus epidermidis H 6966/08 clinical isolate assessed as growth inhibition after 24 to 48 hrs by microbroth dilution method; format: functional, organism-based
[5] = Lipophilicity, log K of the compound by HPLC analysis; format: physicochemical
Trichosporon asahii = assay: Antifungal activity against Trichosporon asahii 1188 assessed as growth inhibition after 24 to 48 hrs by microbroth dilution method; format: functional, organism-based
[6] = tested on: Trichophyton mentagrophytes; assay: Antifungal activity against Trichophyton mentagrophytes 445 assessed as growth inhibition after 72 to 120 hrs by microbroth dilution method; format: functional, organism-based
Candida albicans = assay: Antifungal activity against Candida albicans ATCC 44859 assessed as growth inhibition after 24 to 48 hrs by microbroth dilution method; format: functional, organism-based
Nakaseomyces glabratus = assay: Antifungal activity against Candida glabrata 20/I assessed as growth inhibition after 24 to 48 hrs by microbroth dilution method; format: functional, organism-based
Pseudomonas aeruginosa = assay: Antibacterial activity against Pseudomonas aeruginosa CCM 1961 assessed as growth inhibition after 24 to 48 hrs by microbroth dilution method; format: functional, organism-based
Pichia kudriavzevii = assay: Antifungal activity against Candida krusei E28 assessed as growth inhibition after 24 to 48 hrs by microbroth dilution method; format: functional, organism-based
Staphylococcus aureus [7] = assay: Antibacterial activity against methicillin-resistant Staphylococcus aureus H 5996/08 clinical isolate assessed as growth inhibition after 24 to 48 hrs by microbroth dilution method; format: functional, organism-based
Enterococcus = assay: Antibacterial activity against Enterococcus sp. J 14365/08 clinical isolate assessed as growth inhibition after 24 to 48 hrs by microbroth dilution method; format: functional, organism-based
Aspergillus fumigatus = assay: Antifungal activity against Aspergillus fumigatus 231 assessed as growth inhibition after 24 to 48 hrs by microbroth dilution method; format: functional, organism-based
[8] = Stability of the compound at pH 7; format: physicochemical; details: buffer
Candida tropicalis = assay: Antifungal activity against Candida tropicalis 156 assessed as growth inhibition after 24 to 48 hrs by microbroth dilution method; format: functional, organism-based
Staphylococcus aureus [9] = assay: Antibacterial activity against Staphylococcus aureus CCM 4516/08 assessed as growth inhibition after 24 to 48 hrs by microbroth dilution method; format: functional, organism-based
Klebsiella pneumoniae [10] = assay: Antibacterial activity against Klebsiella pneumoniae D 11750/08 clinical isolate assessed as growth inhibition after 24 to 48 hrs by microbroth dilution method; format: functional, organism-based
Lichtheimia corymbifera = assay: Antifungal activity against Absidia corymbifera 272 assessed as growth inhibition after 24 to 48 hrs by microbroth dilution method; format: functional, organism-based
Klebsiella pneumoniae [11] = assay: Antibacterial activity against ESBL-positive Klebsiella pneumoniae J 14368/08 clinical isolate assessed as growth inhibition after 24 to 48 hrs by microbroth dilution method; format: functional, organism-based
Escherichia coli = assay: Antibacterial activity against Escherichia coli CCM 4517 assessed as growth inhibition after 24 to 48 hrs by microbroth dilution method; format: functional, organism-based

SMILES | MIC (Mycobacterium avium [1]) [µg/mL] | MIC (Mycobacterium kansasii) [µg/mL] | MIC [2] [µg/mL] | MIC (Mycobacterium avium [3]) [µg/mL] | growth inhibition (GI) [4] | log K [5] | growth inhibition (GI) (Trichosporon asahii) | growth inhibition (GI) [6] | growth inhibition (GI) (Candida albicans) | growth inhibition (GI) (Nakaseomyces glabratus) | growth inhibition (GI) (Pseudomonas aeruginosa) | growth inhibition (GI) (Pichia kudriavzevii) | growth inhibition (GI) (Staphylococcus aureus [7]) | growth inhibition (GI) (Enterococcus) | growth inhibition (GI) (Aspergillus fumigatus) | Stability [8] | growth inhibition (GI) (Candida tropicalis) | growth inhibition (GI) (Staphylococcus aureus [9]) | growth inhibition (GI) (Klebsiella pneumoniae [10]) | growth inhibition (GI) (Lichtheimia corymbifera) | further results
NC(=O)c1cnccn1 [PYRAZINAMIDE] | > 100 | > 100 | 12.5 (≈ 102 µM) | > 100 | – | – | – | – | – | – | – | – | – | – | – | – | – | – | – | – | –
NNC(=O)c1ccncc1 [ISONIAZID] | 6.25 (≈ 45.6 µM) | 12.5 (≈ 91.1 µM) | 1.56 (≈ 11.4 µM) | 25 (≈ 182 µM) | – | – | – | – | – | – | – | – | – | – | – | – | – | – | – | – | –
O=C(NCc1cccc([N+](=O)[O-])c1)c1cnc(Cl)cn1 | > 100 | 12.5 (≈ 42.7 µM) | > 100 | > 100 | inactive | 0.1189 | inactive | inactive | inactive | inactive | inactive | inactive | inactive | inactive | inactive | Stable | inactive | inactive | inactive | inactive | growth inhibition (GI) (Klebsiella pneumoniae [11]): inactive; growth inhibition (GI) (Escherichia coli): inactive
O=C(NCc1ccccc1F)c1cnc(Cl)cn1 | > 100 | 50 (≈ 188 µM) | 25 (≈ 94.1 µM) | > 100 | inactive | 0.3395 | inactive | inactive | inactive | inactive | inactive | inactive | inactive | inactive | inactive | Stable | inactive | inactive | inactive | inactive | growth inhibition (GI) (Klebsiella pneumoniae [11]): inactive; growth inhibition (GI) (Escherichia coli): inactive
O=C(Nc1ccc(Br)cc1)c1cnc(Cl)cn1 | > 100 | 6.25 (≈ 20 µM) | 3.13 (≈ 10 µM) | > 100 | inactive | 0.6601 | inactive | inactive | inactive | inactive | inactive | inactive | inactive | inactive | inactive | Stable | inactive | inactive | inactive | inactive | growth inhibition (GI) (Klebsiella pneumoniae [11]): inactive; growth inhibition (GI) (Escherichia coli): inactive
O=C(NCc1ccccc1Cl)c1cnc(Cl)cn1 | > 100 | 6.25 (≈ 22.2 µM) | 25 (≈ 88.6 µM) | > 100 | inactive | 0.4168 | inactive | inactive | inactive | inactive | inactive | inactive | inactive | inactive | inactive | Stable | inactive | inactive | inactive | inactive | growth inhibition (GI) (Klebsiella pneumoniae [11]): inactive; growth inhibition (GI) (Escherichia coli): inactive
O=C(Nc1ccccc1Cl)c1cnc(Cl)cn1 | > 100 | – | 0.78 (≈ 2.91 µM) | > 100 | inactive | 0.8193 | inactive | inactive | inactive | inactive | inactive | inactive | inactive | inactive | inactive | Stable | inactive | inactive | inactive | inactive | growth inhibition (GI) (Klebsiella pneumoniae [11]): inactive; growth inhibition (GI) (Escherichia coli): inactive
OC(Cn1cncn1)(Cn1cncn1)c1ccc(F)cc1F | – | – | – | – | – | – | Active | Active | Active | Active | – | Active | – | – | Active | – | Active | – | – | Active | –
O=C(Nc1cccc([N+](=O)[O-])c1)c1cnc(Cl)cn1 | > 100 | – | 3.13 (≈ 11.2 µM) | > 100 | inactive | 0.3443 | inactive | inactive | inactive | inactive | inactive | inactive | inactive | inactive | inactive | Stable | inactive | inactive | inactive | inactive | growth inhibition (GI) (Klebsiella pneumoniae [11]): inactive; growth inhibition (GI) (Escherichia coli): inactive
